Source: PubChem BioAssay (NCI)
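Compound exposure: 48 hours, 5 concentrations, 96-well plates. GI50 is the concentration that inhibits growth by half. TGI: total growth inhibition.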

Columns and labels:
Experiment in all cases: inhibition of tumour cell growth, NCI panel, 48 h
[1] = test system: NCI-H460 lung
[2] = test system: SF-295 CNS
[3] = test system: MDA-MB-435
[4] = test system: RPMI-8226 leukemia
[5] = test system: NCI-H23 lung
[6] = test system: MOLT-4 leukemia
[7] = test system: SW-620 colon
[8] = test system: HOP-92 NSCLC
[9] = test system: NCI-H522 lung
[10] = test system: UACC-62 melanoma
[11] = test system: IGROV1 ovarian
[12] = test system: T-47D breast
[13] = test system: EKVX NSCLC
[14] = test system: HOP-62 NSCLC
[15] = test system: HCT-15 colon
[16] = test system: SNB-75 CNS
[17] = test system: COLO 205 colon
[18] = test system: HCT-116 colon
[19] = test system: MALME-3M melanoma
[20] = test system: UO-31 renal
[21] = test system: A549 NSCLC
[22] = test system: RXF 393 renal
[23] = test system: NCI-H226 lung
[24] = test system: SK-MEL-5 melanoma
[25] = test system: 786-0 renal
[26] = test system: SK-OV-3 ovarian
[27] = test system: CCRF-CEM leukemia
[28] = test system: MCF7 breast
[29] = test system: OVCAR-8 ovarian
[30] = test system: PC-3 prostate
[31] = test system: BT-549 breast
[32] = test system: OVCAR-4 ovarian
[33] = test system: HCC-2998 colon
[34] = test system: NCI/ADR-RES ovarian
[35] = test system: K-562 leukemia
[36] = test system: SN12C renal
[37] = test system: HT29 colon
[38] = test system: SF-539 CNS
[39] = test system: A498 renal
[40] = test system: DU-145 prostate
[41] = test system: M14 melanoma
[42] = test system: SF-268 CNS
[43] = test system: UACC-257 melanoma
[44] = test system: SNB-19 CNS
[45] = test system: MDA-MB-231 breast
[46] = test system: ACHN renal
[47] = test system: OVCAR-3 ovarian
[48] = test system: LOX IMVI melanoma
[49] = test system: CAKI-1 renal
[50] = test system: SK-MEL-2 melanoma
[51] = test system: TK-10 renal
[52] = test system: SR leukemia
[53] = test system: HS 578T breast
[54] = test system: KM12 colon
[55] = test system: OVCAR-5 ovarian
[56] = test system: SK-MEL-28 melanoma
[57] = test system: HL-60(TB) leukemia
[58] = test system: U251 CNS

## O=C(Nc1cccc(-c2nc(-c3ccc(NC(=O)c4cccnc4)cc3Cl)no2)c1)Nc1ccc(NC(=O)C2CC2)c(C(F)(F)F)c1
[1]
  GI50: 343 nM
  TGI: 1130 nM
[2]
  GI50: 271 nM
  TGI: 752 nM
[3]
  GI50: 126 nM
  TGI: 381 nM
[4]
  GI50: 303 nM
  TGI: 1100 nM
[5]
  GI50: 411 nM
  TGI: 1570 nM
[6]
  GI50: 288 nM
  TGI: 1020 nM
[7]
  GI50: 345 nM
  TGI: 1510 nM
[8]
  GI50: 522 nM
  TGI: 1330 nM
[9]
  GI50: 349 nM
  TGI: 1760 nM
[10]
  GI50: 317 nM
  TGI: 1570 nM
[11]
  GI50: 258 nM
  TGI: 830 nM
[12]
  GI50: 535 nM
  TGI: 2400 nM
[13]
  GI50: 997 nM
  TGI: 5110 nM
[14]
  GI50: 361 nM
  TGI: 1800 nM
[15]
  GI50: 784 nM
  TGI: 5620 nM
[16]
  GI50: 224 nM
  TGI: 806 nM
[17]
  GI50: 380 nM
  TGI: 1610 nM
[18]
  GI50: 303 nM
  TGI: 1280 nM
[19]
  GI50: 240 nM
  TGI: 808 nM
[20]
  GI50: 1610 nM
  TGI: 5450 nM
[21]
  GI50: 429 nM
  TGI: 4760 nM
[22]
  GI50: 247 nM
  TGI: 741 nM
[23]
  GI50: 562 nM
  TGI: 1960 nM
[24]
  GI50: 381 nM
  TGI: 1400 nM
[25]
  GI50: 994 nM
  TGI: 3110 nM
[26]
  GI50: 1760 nM
  TGI: 3890 nM
[27]
  GI50: 270 nM
  TGI: 1900 nM
[28]
  GI50: 228 nM
  TGI: 1220 nM
[29]
  GI50: 449 nM
  TGI: 3100 nM
[30]
  GI50: 226 nM
  TGI: 790 nM
[31]
  GI50: 1070 nM
  TGI: 3020 nM
[32]
  GI50: 565 nM
  TGI: 1830 nM
[33]
  GI50: 689 nM
  TGI: 2060 nM
[34]
  GI50: 22200 nM
  TGI: > 100000 nM
[35]
  GI50: 156 nM
  TGI: 10700 nM
[36]
  GI50: 415 nM
  TGI: 1660 nM
[37]
  GI50: 336 nM
  TGI: 1430 nM
[38]
  GI50: 226 nM
  TGI: 655 nM
[39]
  GI50: 161 nM
  TGI: 1890 nM
[40]
  GI50: 435 nM
  TGI: 4210 nM
[41]
  GI50: 307 nM
  TGI: 1280 nM
[42]
  GI50: 1070 nM
  TGI: 4830 nM
[43]
  GI50: 1330 nM
  TGI: 3490 nM
[44]
  GI50: 381 nM
  TGI: 1900 nM
[45]
  GI50: 323 nM
  TGI: 1260 nM
[46]
  GI50: 2070 nM
  TGI: 13200 nM
[47]
  GI50: 315 nM
  TGI: 1100 nM
[48]
  GI50: 174 nM
  TGI: 388 nM
[49]
  GI50: 437 nM
  TGI: 1800 nM
[50]
  GI50: 1140 nM
  TGI: 2980 nM
[51]
  GI50: 1920 nM
  TGI: 5460 nM
[52]
  GI50: 96.3 nM
  TGI: 962 nM
[53]
  GI50: 324 nM
  TGI: 1290 nM
[54]
  GI50: 376 nM
  TGI: 1750 nM
[55]
  GI50: 446 nM
  TGI: 1710 nM
[56]
  GI50: 559 nM
  TGI: 1710 nM
[57]
  GI50: 259 nM
  TGI: 997 nM
[58]
  GI50: 290 nM
  TGI: 1020 nM
